Data published in US20140271694A1, “ANTIGEN-SPECIFIC METHODS OF DIAGNOSING AND/OR TREATING MYOCARDITIS OR INFLAMMATORY CARDIOMYOPATHY” (Joslin Diabetes Center, Inc., priority 2013, published 2014).
“Also recorded” adds a separate entry of the source.

Experiments:
DQ8 = settings: cited from earlier work
NOD mice = settings: cited from earlier work
[1] = tested on: alpha myosin HC presentation to DQ8 molecules; test: Cardiac myosin-specific DQ8-restricted Clone E T cell hybridoma (BWZ.36.CE, lacZ/β-galactosidase readout) antigen presentation assay; assay type: cell-based, human; settings: in vitro, dose-dependent, DQ8-expressing APCs
Text: FIGS. 15A-C are data showing that the small molecule, tetraazatricyclododecane (TATD), that was predicted to bind pocket 6 of the DQ8 peptide-binding groove (Michels et al, Journal of immunology, 2011), inhibits cardiac myosin presentation by DQ8 to T cells. FIGS. 15A and B are graphs showing that T cell response to insulin B9:23 peptide, measured by IL-2 concentration, is blocked by TATD in a dose dependent manner, for DQ8 and I-Ag7 (Michels et al., Journal of Immunology, 2011). FIG. 15C is a graph showing that T cell response to cardiac myosin stimulation is blocked in vitro by TATD is a dose-dependent manner, in a manner similar to the blocking effect on insulin B9:23 presentation to DQ8. In this assay, T cell responses were measured using our cardiac myosin-specific DQ8-restricted (Clone E) T cell hybridoma that was engineered to produce β-galactosidase following T-cell receptor-antigen stimulation.
To assess the potential efficacy in the setting of post-infarct autoimmunity, we created a lacZ-inducible alpha myosin HC-specific CD4^+ T-cell hybridoma by fusing Clone E, a pathogenic DQ8-restricted CD4^+ T cell clone isolated from a myocarditic heart (Lv H et al., J Clin Invest, 2011) (FIGS. 14A-D), and BWZ.36 fusion partner (Karttunen J et al., Proc Natl Acad Sci USA, 1992), and successfully generated the hybrid, BWZ.36.CE. […]

I-Ag7 = settings: I-Ag7, dose dependent; cited from earlier work

Structure (SMILES): C1CN2CN3CCN(CN1C3)C2 [TATD, tetraazatricyclododecane]
- T cell response to insulin B9:23 peptide, measured by IL-2 concentration (DQ8; DQ8, dose dependent): blocked
- relative potency of blocking DQ8 versus I-Ag7 molecules (DQ8; DQ8 compared with I-Ag7): more potently blocks DQ8 than I-A^g7
- preventing T1D in NOD mice (NOD mice): efficacious
- block of alpha myosin HC presentation to DQ8 molecules (T cell response to cardiac myosin stimulation) [1]: completely block; also recorded: blocked
- T cell response to insulin B9:23 peptide, measured by IL-2 concentration (I-Ag7): blocked
